Assay results published in PMC5803215, “Structural basis for amino acid transport by the CAT family of SLC7 transporters” (Nature Communications, 2018).
Substitutions are numbered along the chain they refer to. pIC50: −log10 of the molar value. Values belong to the compound of their own block, whether it stands above or below them.

Key:
GkApcT [1] = target: T1, GkApcT (Geobacillus kaustophilus, UniProt Q5L1G5, M321S); assay: electrogenic 3H-L-Ala uptake competition in proteoliposomes; format: biochemical
T1 construct: gene GK0930; cleavable GFP-His tag (pWaldo-GFP) removed with TEV; expressed in E. coli C43(DE3); co-purifies with E. coli MgtS; purified in DM/DDM, reconstituted in POPE:POPG liposomes
T1 sequence (Q5L1G5 1-471 M321S): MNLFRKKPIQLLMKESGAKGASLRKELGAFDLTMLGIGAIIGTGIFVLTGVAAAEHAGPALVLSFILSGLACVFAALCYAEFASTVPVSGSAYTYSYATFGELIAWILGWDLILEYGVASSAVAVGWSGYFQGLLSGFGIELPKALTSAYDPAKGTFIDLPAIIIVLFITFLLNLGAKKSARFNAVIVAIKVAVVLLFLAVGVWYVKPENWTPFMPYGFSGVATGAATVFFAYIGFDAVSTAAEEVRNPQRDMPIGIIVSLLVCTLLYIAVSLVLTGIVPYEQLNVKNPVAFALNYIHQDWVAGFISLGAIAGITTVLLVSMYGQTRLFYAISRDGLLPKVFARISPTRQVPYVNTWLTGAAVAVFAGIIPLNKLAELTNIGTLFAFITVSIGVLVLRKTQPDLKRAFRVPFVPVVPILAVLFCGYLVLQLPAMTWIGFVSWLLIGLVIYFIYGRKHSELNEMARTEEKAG

GkApcT [2] = target: T2, GkApcT (Geobacillus kaustophilus, UniProt Q5L1G5); assay: as above; format: biochemical
T2 construct: gene GK0930; cleavable GFP-His tag (pWaldo-GFP) removed with TEV; expressed in E. coli C43(DE3); co-purifies with E. coli MgtS; purified in DM/DDM, reconstituted in POPE:POPG liposomes
T2 sequence (Q5L1G5 1-471): T1 sequence (Q5L1G5 1-471 M321S) with S321M

GkApcT-MgtS heterodimer [3] = target: T3, GkApcT-MgtS heterodimer (Geobacillus kaustophilus, UniProt A5A616+Q5L1G5); assay: thermal stability (circular dichroism); format: binding; conditions: pH 6.5
T3 construct: gene GK0930; heterodimer of G. kaustophilus GkApcT with host-derived E. coli MgtS (YneM); GFP-His tag cut with TEV; expressed in E. coli C43(DE3)
T3 sequence (Q5L1G5 1-471): T1 sequence (Q5L1G5 1-471 M321S) with S321M
T3 sequence (A5A616 1-31): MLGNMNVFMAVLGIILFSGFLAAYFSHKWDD

GkApcT-MgtS heterodimer [4] = target: T3, GkApcT-MgtS heterodimer; assay: X-ray crystal structure; format: binding; conditions: site between GkApcT TM5 and MgtS; cholesterol-doped monoolein LCP
GkApcT [5] = target: T4, GkApcT (Geobacillus kaustophilus, UniProt Q5L1G5, K191N); assay: thermal stability (nanoDSF); format: binding; conditions: 10 mM L-Ala; pH 6.0
T4 construct: gene GK0930; cleavable GFP-His tag (pWaldo-GFP) removed with TEV; expressed in E. coli C43(DE3); co-purifies with E. coli MgtS; purified in DM/DDM, reconstituted in POPE:POPG liposomes

GkApcT [6] = target: T2, GkApcT; assay: thermal stability (nanoDSF); format: binding; conditions: 10 mM L-Ala; pH 6.0
GkApcT [7] = target: T5, GkApcT (Geobacillus kaustophilus, UniProt Q5L1G5, K191A); assay: thermal stability (nanoDSF); format: binding; conditions: 10 mM L-Ala; pH 6.0
T5 construct: gene GK0930; cleavable GFP-His tag (pWaldo-GFP) removed with TEV; expressed in E. coli C43(DE3); co-purifies with E. coli MgtS; purified in DM/DDM, reconstituted in POPE:POPG liposomes

GkApcT [8] = target: T6, GkApcT (Geobacillus kaustophilus, UniProt Q5L1G5, K191R); assay: thermal stability (nanoDSF); format: binding; conditions: 10 mM L-Ala; pH 6.0
T6 construct: gene GK0930; cleavable GFP-His tag (pWaldo-GFP) removed with TEV; expressed in E. coli C43(DE3); co-purifies with E. coli MgtS; purified in DM/DDM, reconstituted in POPE:POPG liposomes

GkApcT [9] = target: T7, GkApcT (Geobacillus kaustophilus, UniProt Q5L1G5, R334E); assay: electrogenic 3H-L-Ala uptake competition in proteoliposomes; format: biochemical
T7 construct: gene GK0930; cleavable GFP-His tag (pWaldo-GFP) removed with TEV; expressed in E. coli C43(DE3); co-purifies with E. coli MgtS; purified in DM/DDM, reconstituted in POPE:POPG liposomes

GkApcT [10] = target: T8, GkApcT (Geobacillus kaustophilus, UniProt Q5L1G5, E115Q); assay: thermal stability (nanoDSF); format: binding; conditions: 10 mM L-Ala; pH 6.0
T8 construct: gene GK0930; cleavable GFP-His tag (pWaldo-GFP) removed with TEV; expressed in E. coli C43(DE3); co-purifies with E. coli MgtS; purified in DM/DDM, reconstituted in POPE:POPG liposomes
T8 sequence (Q5L1G5 entry or part of it E115Q): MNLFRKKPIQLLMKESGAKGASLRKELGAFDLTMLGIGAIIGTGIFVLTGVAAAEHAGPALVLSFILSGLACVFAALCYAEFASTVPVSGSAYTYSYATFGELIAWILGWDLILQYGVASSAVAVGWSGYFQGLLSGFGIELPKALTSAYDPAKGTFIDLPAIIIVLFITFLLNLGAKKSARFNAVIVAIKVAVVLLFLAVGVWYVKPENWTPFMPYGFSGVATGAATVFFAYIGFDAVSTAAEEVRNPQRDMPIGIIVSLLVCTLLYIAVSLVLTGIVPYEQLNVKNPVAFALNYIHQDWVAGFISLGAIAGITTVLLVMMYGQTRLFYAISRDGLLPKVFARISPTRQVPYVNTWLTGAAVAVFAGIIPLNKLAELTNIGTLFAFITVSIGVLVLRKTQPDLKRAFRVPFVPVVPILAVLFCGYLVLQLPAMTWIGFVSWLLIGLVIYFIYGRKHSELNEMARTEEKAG

T5 sequence (Q5L1G5 entry or part of it K191A): as the sequence (Q5L1G5 entry or part of it E115Q) above, with Q115E, K191A counted along it
T6 sequence (Q5L1G5 entry or part of it K191R): as the sequence (Q5L1G5 entry or part of it E115Q) above, with Q115E, K191R counted along it
T4 sequence (Q5L1G5 entry or part of it K191N): as the sequence (Q5L1G5 entry or part of it E115Q) above, with Q115E, K191N counted along it
T7 sequence (Q5L1G5 entry or part of it R334E): as the sequence (Q5L1G5 entry or part of it E115Q) above, with Q115E, R334E counted along it

Compound: N=C(N)NCCC[C@H](N)C(=O)O [L-arginine]
pIC50 (GkApcT [1]): 4.94 | pIC50 (GkApcT [2]): 2.22

Tm with ligand (GkApcT-MgtS heterodimer [3]): 57 to 72 °C
Compound: CC(C)CCC[C@@H](C)[C@H]1CC[C@H]2[C@@H]3CC=C4C[C@@H](OC(=O)CCC(=O)O)CC[C@]4(C)[C@H]3CC[C@]12C [cholesterol hemisuccinate]

Compound: CC(C)CCC[C@@H](C)[C@H]1CC[C@H]2[C@@H]3CC=C4C[C@@H](O)CC[C@]4(C)[C@H]3CC[C@]12C [cholesterol]
X-ray crystal structure (GkApcT-MgtS heterodimer [4]): we observed density for a cholesterol molecule in this pocket

Tm with ligand (GkApcT [6]): ~58 to ~69 | pIC50 (GkApcT [9]): 6.40 | pIC50 (GkApcT [2]): 5.70
Compound: C[C@H](N)C(=O)O [L-Alanine]
dTm (GkApcT [5]): A similar stabilising effect was also observed in the Lys191Ala, Arg and Asn variants | dTm (GkApcT [7]): A similar stabilising effect was also observed in the Lys191Ala, Arg and Asn variants | dTm (GkApcT [8]): A similar stabilising effect was also observed in the Lys191Ala, Arg and Asn variants | dTm (GkApcT [10]): Glu115Gln variant can still recognise alanine to the same extent as wild-type protein
